Experimental data taken from the supplement of paper PMC10307832.

How the values were obtained:
Assay in all cases: relative viability (nuclei count vs DMSO), 5 days (fraction); higher = more cells survive
[1] = compound: CC1=CC(=C(N1C2=CC=C(C=C2)Cl)C)C(=O)CN3CCCCC3 [IU1-47] + O=C(c1cc(Cc2n[nH]c(=O)c3ccccc23)ccc1F)N1CCN(C(=O)C2CC2)CC1 [Olaparib] (partner 8 µM)
Outline: (§1)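 Relative viability equals treated-well nuclei counts divided by vehicle-well nuclei counts. Counts came from 4× images of lung cancer cell lines grown in 1536-well plates for 5 days after pin-tool dosing on the day after seeding. Dosing used one drug alone or a fixed anchor-drug dose plus five library-drug doses (not always all listed) in √10 steps, and values are medians of duplicate plates.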

[2] = compound: CC1=CC(=C(N1C2=CC=C(C=C2)Cl)C)C(=O)CN3CCCCC3 [IU1-47] + NC(=O)Nc1cc(-c2cccc(F)c2)sc1C(=O)N[C@H]1CCCNC1 [AZD7762] (partner 0.2 µM)
Outline: as §1

[3] = compound: Cc1nc(C(=O)NCC(=O)O)c(O)c2ccc(Oc3ccccc3)cc12 [FG-4592] + C[C@@H](Oc1cc(-c2cnn(C3CCNCC3)c2)cnc1N)c1c(Cl)ccc(F)c1Cl [Crizotinib] (partner 1 µM)
Outline: as §1

[4] = compound: Cc1nc(C(=O)NCC(=O)O)c(O)c2ccc(Oc3ccccc3)cc12 [FG-4592] + COc1cc2c(Oc3ccc(NC(=O)C4(C(=O)Nc5ccc(F)cc5)CC4)cc3F)ccnc2cc1OCCCN1CCOCC1 [Foretinib] (partner 0.25 µM)
Outline: as §1

Row | Cell Line | relative viability ([1]; first compound 0.08 µM) | relative viability ([1]; first compound 0.253 µM) | relative viability ([1]; first compound 0.8 µM) | relative viability ([1]; first compound 2.53 µM) | relative viability ([1]; first compound 8 µM) | relative viability ([2]; first compound 0.08 µM) | relative viability ([2]; first compound 0.253 µM) | relative viability ([2]; first compound 0.8 µM) | relative viability ([2]; first compound 2.53 µM) | relative viability ([2]; first compound 8 µM) | relative viability ([3]; first compound 0.08 µM) | relative viability ([3]; first compound 0.253 µM) | relative viability ([3]; first compound 0.8 µM) | relative viability ([3]; first compound 2.53 µM) | relative viability ([3]; first compound 8 µM) | relative viability ([4]; first compound 0.08 µM) | relative viability ([4]; first compound 0.253 µM) | relative viability ([4]; first compound 0.8 µM) | relative viability ([4]; first compound 2.53 µM) | relative viability ([4]; first compound 8 µM)
1 | HCC-78 | 0.803 | 0.792 | 0.805 | 0.59 | 0.813 | 0.606 | 0.546 | 0.638 | 0.654 | 0.609 | 0.312 | 0.332 | 0.269 | 0.31 | 0.337 | 0.556 | 0.561 | 0.52 | 0.541 | 0.576
2 | HCC-366 | 0.511 | 0.328 | 0.423 | 0.312 | 0.292 | 0.281 | 0.357 | 0.355 | 0.267 | 0.236 | 0.469 | 0.471 | 0.565 | 0.628 | 0.325 | 0.926 | 0.844 | 0.956 | 0.994 | 0.863
3 | HCC-827 | 0.617 | 0.694 | 0.631 | 0.683 | 0.648 | 0.174 | 0.213 | 0.227 | 0.202 | 0.197 | 0.92 | 0.892 | 0.923 | 1.02 | 0.869 | 1.06 | 0.899 | 1.04 | 1.03 | 1.06
4 | IA-LM | 0.748 | 0.863 | 0.958 | 0.979 | 0.903 | – | – | – | – | – | 0.766 | 0.824 | 0.805 | 0.644 | 0.76 | 1.19 | 1.14 | 1.18 | 1.14 | 1.08
5 | NCI-H520 | 0.32 | 0.391 | 0.269 | 0.349 | 0.309 | – | – | – | – | – | 0.731 | 0.652 | 0.932 | 0.758 | 0.586 | 0.497 | 0.639 | 0.674 | 0.868 | 0.605
6 | NCI-H522 | 0.724 | 0.715 | 0.525 | 0.665 | 0.668 | 0.889 | 0.726 | 0.969 | 0.691 | 1 | – | – | – | – | – | – | – | – | – | –
7 | NCI-H661 | 0.798 | 0.735 | 0.807 | 0.801 | 0.589 | – | – | – | – | – | – | – | 1.29 | 1.04 | 1.1 | 1.06 | 0.956 | 1.09 | 0.987 | 0.938
8 | NCI-H1299 | 0.982 | 1.03 | 0.958 | 0.923 | 0.959 | – | – | – | – | – | 0.953 | 0.903 | 0.976 | 0.93 | 0.989 | 1.12 | 1.06 | 1.15 | 1.07 | 1.07
9 | NCI-H1395 | 0.46 | 0.432 | 0.44 | 0.452 | 0.412 | 0.422 | 0.336 | 0.414 | 0.384 | 0.392 | – | – | – | – | – | 1.06 | 0.889 | 0.981 | 0.997 | 0.963
10 | NCI-H1563 | – | – | – | – | – | – | – | – | – | – | 0.893 | 0.888 | 0.91 | 0.889 | 0.804 | 0.995 | 0.961 | 0.866 | 1.01 | 0.82
11 | NCI-H1623 | – | – | – | – | – | – | – | – | – | – | – | – | – | – | – | 0.825 | 0.846 | 0.795 | 0.731 | 0.724
12 | NCI-H1648 | 1.16 | 1.17 | 0.813 | 0.656 | 0.577 | 0.61 | 0.727 | 0.821 | 0.732 | 0.508 | – | – | – | – | – | – | – | – | – | –
13 | NCI-H1650 | 0.756 | 0.797 | 0.736 | 0.968 | 0.797 | – | – | – | – | – | 1.14 | 0.826 | 1.21 | 1.05 | 1.02 | 1.24 | 0.903 | 1.21 | 1.33 | 1.04
14 | NCI-H1792 | 0.659 | 0.481 | 0.365 | 0.384 | 0.215 | 0.501 | 0.613 | 0.643 | 0.666 | 0.619 | 0.96 | 0.764 | 0.812 | 1.01 | 0.975 | – | – | – | – | –
15 | NCI-H1793 | 0.861 | – | 1.1 | 1.01 | 0.87 | 0.716 | – | 0.516 | 0.319 | 0.338 | – | – | – | – | – | 0.739 | 0.71 | – | 0.593 | 0.554
16 | NCI-H2009 | 0.662 | 0.678 | 0.612 | 0.804 | 0.65 | – | – | – | – | – | 1.14 | 0.967 | 1.01 | 0.953 | 0.98 | 1.21 | 1.11 | 1.13 | 1.14 | 1.11
17 | NCI-H2023 | 0.454 | 0.639 | 0.49 | 0.44 | 0.479 | – | – | – | – | – | 0.609 | 0.66 | 0.703 | 0.768 | 0.544 | 0.792 | 0.79 | 0.885 | 0.854 | 0.742
18 | NCI-H2228 | 0.738 | 0.575 | 0.596 | 0.869 | 0.504 | – | – | – | – | – | 0.592 | 0.279 | 0.522 | 0.437 | 0.554 | 0.672 | 0.744 | 0.945 | 0.854 | 0.717
19 | NCI-H2342 | 0.49 | 0.432 | 0.463 | 0.425 | 0.418 | 0.526 | 0.588 | 0.57 | 0.507 | 0.486 | – | – | – | – | – | 1 | 1.01 | 1.06 | 0.959 | 0.993
20 | SK-LU-1 | 0.663 | 0.444 | 0.462 | 0.55 | 0.388 | – | – | – | – | – | 0.806 | 0.731 | 0.912 | – | 0.968 | 0.866 | 0.646 | 0.767 | 0.881 | 0.631
21 | SK-MES-1 | 0.823 | 0.771 | 0.664 | 0.652 | 0.786 | – | – | – | – | – | 0.913 | 0.854 | 1 | 1.03 | 1 | 1.09 | 0.724 | 0.779 | 0.934 | 0.836
22 | SW 900 | 0.859 | – | 1.19 | 1.11 | 0.976 | 0.694 | – | 0.695 | 0.611 | 0.683 | – | – | – | – | – | 0.823 | 0.947 | 1.08 | 1.17 | 0.833
23 | SW 1573 | 0.592 | 0.462 | 0.445 | 0.453 | 0.501 | – | – | – | – | – | 0.664 | 0.7 | 0.71 | 1 | 0.632 | 0.913 | 0.978 | 0.884 | 0.987 | 0.963
